Literature values in patent US9820936B2, “Oral controlled release pharmaceutical compositions of Bepotastine” (LUPIN LIMITED, priority 2011, dated 2017).

Conditions: background statement

half life: 2.4 ± 0.1 h
SMILES: O=C(O)CCCN1CCC(O[C@@H](c2ccc(Cl)cc2)c2ccccn2)CC1 [Bepotastine, (+)-(S)-4-[4-[(4-Chlorophenyl)(2-pyridyl)methoxy]piperidino]butyric acid]
